Source: patent publication US20220402973A1, “POLYPEPTIDE FRAGMENT C (MP-C) AND USE THEREOF” (SHANGHAI LONGXIN BIOMEDICAL TECHNOLOGY CO., LTD., priority 2021, published 2022)

B1: THTVGSYFSVQNGYVGAFSQALGNSEYAMNSPLGSLDGRTTMYNLLGVKYLFAREDQLKKQ (peptide, listed as Lactobacillus plantarum)
chain: THTVGSYFSVQNGYVGAFSQALGNSEYAMNSPLGSLDGRTTMYNLLGVKYLFAREDQLKKQ
notes: positive control

Experiments:
Assay type in all cases: in vivo, mice (male C57BL6)
DSS-induced IBD in mice [1] = assay: Colon length in DSS-induced acute IBD mouse model; conditions: DSS 2.5 wt % induced IBD mice; 50 μg/kg intragastric daily; mean±SD; model group 6.4±0.5, blank 9.5±0.5; in cm (unit assumed)
Method: (§1) The administration of a DSS solution with a specified concentration to mice can induce an acute IBD model characterized by diarrhea, hematochezia, ulcer, and granulocyte infiltration. Mice were randomly grouped according to body weights of the mice. 40 healthy male C57BL6 mice were divided into four groups each with 10 mice: […]
(§2) After DSS induction, the body weight changes, activities, and feces viscosity of the mice in each group were recorded every day. […] A mouse colon between an anus end to an ileocecal end was integrally collected, and a length of the colon was measured; and the colon was dissected along a longitudinal axis, feces therein was rinsed off, and then the colon was stored in 4% […] or frozen at −80° C.
(§3) Experimental data in the above experimental method were expressed as (x±SD), the GraphPad Prism (ver. 8.0, GraphPad Software Inc., San Diego, Calif., USA) was used to plot a chart, the SPSS Program (ver. 25.0, SPSS Inc., Chicago, Ill., USA) was used for statistical test, and one-way ANOVA or independent two-sample t-test were used for significance test when the normality and homogeneity of variances were met. […]

IFN-γ = assay: ELISA of colonic IFN-γ expression in DSS-induced IBD mice; conditions: DSS 2.5 wt % induced IBD mice; 50 μg/kg intragastric daily; colon homogenate ELISA; mean±SD; model group 1223.1±41.5, blank 889.2±74.6
Method: as §1
The colon sample frozen at −80° C. in step 1.2 was placed in an EP tube, PBS and magnetic beads were added, and then the colon sample was subjected to ultrasonic homogenization in a tissue grinder; and a resulting homogenate was centrifuged, and a resulting supernatant was collected. […] Appropriate primary and secondary antibodies were used according to the instructions, an o-phenylenediamine (OPD) chromogenic solution was used for color development, and after the reaction was terminated, reading was conducted on a microplate reader at a wavelength of 490 nm, with three replicate wells for each sample.
as §3

DSS-induced IBD in mice [2] = assay: DAI scoring in DSS-induced acute IBD mouse model; conditions: DSS 2.5 wt % induced IBD mice, 50 μg/kg intragastric daily; for DAI (disease activity index) score: 7 days pre-administration then with DSS, end of experiment, mean±SD, model group 3.7±0.6, blank 0.0±0.0; for body weight of mice (effect of intervention): versus model group
Method: (§4) The administration of a DSS solution with a specified concentration to mice can induce an acute IBD model characterized by diarrhea, hematochezia, ulcer, and granulocyte infiltration. Mice were randomly grouped according to body weights of the mice. 40 healthy male C57BL6 mice were divided into four groups each with 10 mice:
blank control group: the mice were each intragastrically administered with water every day at a volume of 0.4 mL/20 g;
model group: the mice were each intragastrically administered with a DSS aqueous solution of a mass fraction of 2.5 wt % consecutively for 7 days, where the DSS aqueous solution was freshly prepared and changed every day;
MIMP positive control group: the mice were each given a pre-administration process for one week, that is, the mice were each intragastrically administered with an MIMP solution of a mass fraction of 50 μg/kg for the first 7 days, and then from day 8, the mice were each intragastrically administered with a DSS aqueous solution of a mass fraction of 2.5 wt % (at a volume of 0.4 mL/20 g) and an MIMP solution of a mass fraction of 50 μg/kg (at a volume of 0.4 mL/20 g) every day; and
MP-C experimental group: the mice were each given a pre-administration process for one week, that is, the mice were each intragastrically administered with an MP-C solution of a mass fraction of 50 μg/kg for the first 7 days, and from day 8, the mice were each intragastrically administered with a DSS aqueous solution of a mass fraction of 2.5 wt % (at a volume of 0.4 mL/20 g) and an MP-C solution of a mass fraction of 50 μg/kg (at a volume of 0.4 mL/20 g) every day.
The body weight changes of mice in each group were recorded every day to determine whether the acute IBD mouse model was successfully established.
as §2
Experimental data in the above experimental method were expressed as (x±SD), the GraphPad Prism (ver. 8.0, GraphPad Software Inc., San Diego, Calif., USA) was used to plot a chart, the SPSS Program (ver. 25.0, SPSS Inc., Chicago, Ill., USA) was used for statistical test, and one-way ANOVA or independent two-sample t-test were used for significance test when the normality and homogeneity of variances were met. It was assumed that α=0.05, and P<0.05 indicates a statistically significant difference.

DSS-induced IBD in mice [3] = assay: Colonic histopathological evaluation (HE staining) in DSS-induced IBD mice; conditions: DSS 2.5 wt % induced IBD mice, 50 μg/kg intragastric daily, mean±SD, model group 5.6±0.7, blank 0.0±0.0
Description: as §4
MIMP positive control group: the mice were each given a pre-administration process for one week, that is, the mice were each intragastrically administered with an MIMP solution of a mass fraction of 50 μg/kg for the first 7 days, and then from day 8, the mice were each intragastrically administered with a DSS aqueous solution of a mass fraction of 2.5 wt % (at a volume of 0.4 mL/20 g) and an MIMP solution of a mass fraction of 50 μg/kg (at a volume of 0.4 mL/20 g) every day; and […]
as §3

Row | Molecule | colon length (DSS-induced IBD in mice [1]) | expression level of IFN-γ in colon (IFN-γ) | DAI (disease activity index) score (DSS-induced IBD in mice [2]) | body weight of mice (effect of intervention) (DSS-induced IBD in mice [2]) | colonic histopathologic score (DSS-induced IBD in mice [3])
1 | THTVGSYFVVQNGYVGAFSYALGNSEYAMSSPLGSLDGRTTRYNLL (THTVGSYFXVQNGYVGAFSXALGNSEYAMXSPLGSLDGRTTXYNLL; Sequence is synthesized; (9)..(9) Xaa can be Tyr, Val, Gly, Ser, or Gln; (20)..(20) Xaa can be Ser, Gln, Glu, or Tyr; (30)..(30) Xaa can be Asn, Thr, Ser, Pro, or Leu; (42)..(42) Xaa can be Gly, Arg, Met, or absent) [MP-C] | 9.2±0.2 | 1068.4±61.2 | 2.0±0.3 | prevented the significant decrease in body weight | 1.2±0.2
2 | B1 | 9.5±0.3 | 1011.4±79.5 | 2.7±0.7 | prevented the significant decrease in body weight | 1.4±0.7
